Source: PubChem BioAssay (NCI)
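The compound was tested at five concentrations on cells cultured in 96-well plates, with a 48-hour exposure period. GI50 marks 50% less growth. TGI denotes the concentration required for complete inhibition of growth.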

How the values were obtained:
Test in all cases: growth of human tumour cells (NCI), 48 h; in the data active means GI50 below about 0.43 µM; inactive means the rest
786-0 renal = system: 786-0 renal
A498 renal = system: A498 renal
A549 NSCLC = system: A549 NSCLC
ACHN renal = system: ACHN renal
BT-549 breast = system: BT-549 breast
CAKI-1 renal = system: CAKI-1 renal
CCRF-CEM leukemia = system: CCRF-CEM leukemia
DU-145 prostate = system: DU-145 prostate
EKVX NSCLC = system: EKVX NSCLC
HCT-116 colon = system: HCT-116 colon
HL-60(TB) leukemia = system: HL-60(TB) leukemia
HOP-62 NSCLC = system: HOP-62 NSCLC
HS 578T breast = system: HS 578T breast
HT29 colon = system: HT29 colon
IGROV1 ovarian = system: IGROV1 ovarian
K-562 leukemia = system: K-562 leukemia
MALME-3M melanoma = system: MALME-3M melanoma
MCF7 breast = system: MCF7 breast
MDA-MB-231 breast = system: MDA-MB-231 breast
MOLT-4 leukemia = system: MOLT-4 leukemia
NCI-H226 lung = system: NCI-H226 lung
NCI-H23 lung = system: NCI-H23 lung
NCI-H460 lung = system: NCI-H460 lung
NCI-H522 lung = system: NCI-H522 lung
NCI/ADR-RES ovarian = system: NCI/ADR-RES ovarian
OVCAR-3 ovarian = system: OVCAR-3 ovarian
OVCAR-4 ovarian = system: OVCAR-4 ovarian
OVCAR-8 ovarian = system: OVCAR-8 ovarian
PC-3 prostate = system: PC-3 prostate
RPMI-8226 leukemia = system: RPMI-8226 leukemia
RXF 393 renal = system: RXF 393 renal
SF-268 CNS = system: SF-268 CNS
SF-295 CNS = system: SF-295 CNS
SF-539 CNS = system: SF-539 CNS
SK-MEL-2 melanoma = system: SK-MEL-2 melanoma
SK-MEL-5 melanoma = system: SK-MEL-5 melanoma
SK-OV-3 ovarian = system: SK-OV-3 ovarian
SN12C renal = system: SN12C renal
SNB-19 CNS = system: SNB-19 CNS
SNB-75 CNS = system: SNB-75 CNS
SR leukemia = system: SR leukemia
T-47D breast = system: T-47D breast
TK-10 renal = system: TK-10 renal
U251 CNS = system: U251 CNS
UO-31 renal = system: UO-31 renal

COC(=O)c1ccc2c(c1)nc(-c1cc3ccccc3[nH]c1=O)n2-c1cc(C(C)(C)C)[nH]n1
> 29.8 µM: TGI (RXF 393 renal)
> 50.5 µM: TGI (SF-295 CNS)
> 100 µM: TGI (786-0 renal) | TGI (A549 NSCLC) | TGI (ACHN renal) | TGI (CCRF-CEM leukemia) | TGI (DU-145 prostate) | TGI (EKVX NSCLC) | TGI (HCT-116 colon) | TGI (HL-60(TB) leukemia) | TGI (HOP-62 NSCLC) | TGI (HT29 colon) | TGI (IGROV1 ovarian) | TGI (K-562 leukemia) | TGI (MALME-3M melanoma) | TGI (MCF7 breast) | TGI (MDA-MB-231 breast) | TGI (MOLT-4 leukemia) | TGI (NCI-H226 lung) | TGI (NCI-H23 lung) | TGI (NCI-H460 lung) | TGI (NCI-H522 lung) | TGI (NCI/ADR-RES ovarian) | TGI (OVCAR-3 ovarian) | TGI (OVCAR-4 ovarian) | TGI (OVCAR-8 ovarian) | TGI (PC-3 prostate) | TGI (SF-539 CNS) | TGI (SK-MEL-2 melanoma) | TGI (SK-MEL-5 melanoma) | TGI (SK-OV-3 ovarian) | TGI (SN12C renal) | TGI (SNB-19 CNS) | TGI (SR leukemia) | TGI (T-47D breast) | TGI (U251 CNS) | TGI (UO-31 renal)
> 87.7 µM: TGI (A498 renal)
> 95.9 µM: TGI (SF-268 CNS)
> 58.4 µM: TGI (HS 578T breast)
> 74.7 µM: TGI (TK-10 renal)
inactive: GI50 (786-0 renal) 3.79 µM | GI50 (A498 renal) 3.99 µM | GI50 (A549 NSCLC) > 100 µM | GI50 (ACHN renal) > 100 µM | GI50 (BT-549 breast) 4.88 µM | GI50 (CAKI-1 renal) 1.24 µM | GI50 (CCRF-CEM leukemia) 0.853 µM | GI50 (DU-145 prostate) 2.55 µM | GI50 (EKVX NSCLC) 10 µM | GI50 (HCT-116 colon) 1.74 µM | GI50 (HL-60(TB) leukemia) 2.17 µM | GI50 (HOP-62 NSCLC) 0.996 µM | GI50 (HS 578T breast) 0.574 µM | GI50 (HT29 colon) 1.34 µM | GI50 (IGROV1 ovarian) 1.23 µM | GI50 (K-562 leukemia) 1.7 µM | GI50 (MALME-3M melanoma) 2.63 µM | GI50 (MCF7 breast) > 100 µM | GI50 (MDA-MB-231 breast) 4.13 µM | GI50 (MOLT-4 leukemia) 0.793 µM | GI50 (NCI-H226 lung) 16.5 µM | GI50 (NCI-H23 lung) 2.64 µM | GI50 (NCI-H460 lung) 0.784 µM | GI50 (NCI-H522 lung) 1.19 µM | GI50 (NCI/ADR-RES ovarian) 2.97 µM | GI50 (OVCAR-3 ovarian) 4.5 µM | GI50 (OVCAR-4 ovarian) > 100 µM | GI50 (OVCAR-8 ovarian) 2 µM | GI50 (PC-3 prostate) 2.27 µM | GI50 (RPMI-8226 leukemia) 0.443 µM | GI50 (RXF 393 renal) 2.83 µM | GI50 (SF-268 CNS) 2.24 µM | GI50 (SF-295 CNS) 2.14 µM | GI50 (SF-539 CNS) > 20.3 µM | GI50 (SK-MEL-2 melanoma) 2.82 µM | GI50 (SK-MEL-5 melanoma) 2.61 µM | GI50 (SK-OV-3 ovarian) > 53.4 µM | GI50 (SN12C renal) > 23.7 µM | GI50 (SNB-19 CNS) 7.59 µM | GI50 (SNB-75 CNS) 5.42 µM | GI50 (SR leukemia) 12.8 µM | GI50 (T-47D breast) > 100 µM | GI50 (TK-10 renal) 40 µM | GI50 (U251 CNS) 0.987 µM | GI50 (UO-31 renal) 0.526 µM
66.2 µM: TGI (BT-549 breast)
41.5 µM: TGI (SNB-75 CNS)
> 95.1 µM: TGI (CAKI-1 renal)
